One assay concerns L1210. The assay can be described thus: Antiproliferative activity against mouse L1210 cells after 72 hrs by phosphatase assay. Conditions: L1210, 72 h. Type of assay: functional, cell-based.
Assay [1] is described as follows: Cytotoxicity against human HCT116/VM46 cells assessed as reduction in cell viability after 72 hrs by phosphatase assay. Type of assay: cell-based. The settings on record: HCT-116/VM46, 72 h.
In another assay the test system is HCT-116. The assay is described as follows: Antiproliferative activity against human HCT116 cells after 72 hrs by phosphatase assay. In kind it is functional, cell-based. The settings on record: HCT-116, 72 h.

Each structure is given as a SMILES string.

The term IC50 denotes the midpoint of a concentration-inhibition curve. Consider `CC[C@]1(NC(=O)c2ccc3cccc(OC)c3c2)C[C@H]2CN(CCc3c([nH]c4ccccc34)[C@@](C(=O)OC)(c3cc4c(cc3OC)N(C)[C@H]3[C@@](O)(C(=O)OC)[C@H](OC(C)=O)[C@]5(CC)C=CCN6CC[C@]43[C@@H]65)C2)C1`, for which the IC50 in the assay with L1210 came to 10 nM; in assay [1], 70 nM; in the assay with HCT-116 it was 13 nM.
Taken in the same sequence, the figures for `CC[C@]1(NC(=O)c2ccc(CN)cc2)C[C@H]2CN(CCc3c([nH]c4ccccc34)[C@@](C(=O)OC)(c3cc4c(cc3OC)N(C)[C@H]3[C@@](O)(C(=O)OC)[C@H](OC(C)=O)[C@]5(CC)C=CCN6CC[C@]43[C@@H]65)C2)C1` were 25 nM, 470 nM and 3.5 nM.
As for `CC[C@]1(NC(=O)c2ccc(C#N)c(C)c2)C[C@H]2CN(CCc3c([nH]c4ccccc34)[C@@](C(=O)OC)(c3cc4c(cc3OC)N(C)[C@H]3[C@@](O)(C(=O)OC)[C@H](OC(C)=O)[C@]5(CC)C=CCN6CC[C@]43[C@@H]65)C2)C1`, the values for the IC50 (with L1210; in assay [1]; in the assay with HCT-116) were 4.8 nM, 65 nM and 6.2 nM, respectively.
On to `CC[C@]1(NC(=O)c2ccon2)C[C@H]2CN(CCc3c([nH]c4ccccc34)[C@@](C(=O)OC)(c3cc4c(cc3OC)N(C)[C@H]3[C@@](O)(C(=O)OC)[C@H](OC(C)=O)[C@]5(CC)C=CCN6CC[C@]43[C@@H]65)C2)C1`, for which the half-maximal inhibitory concentration (IC50) is 4.5 nM with L1210, 90 nM in assay [1] and 7 nM in the assay with HCT-116.
Taken in the same sequence, the figures for `CC[C@]1(NC(=O)C2Cc3ccccc3C2)C[C@H]2CN(CCc3c([nH]c4ccccc34)[C@@](C(=O)OC)(c3cc4c(cc3OC)N(C)[C@H]3[C@@](O)(C(=O)OC)[C@H](OC(C)=O)[C@]5(CC)C=CCN6CC[C@]43[C@@H]65)C2)C1` were 30 nM, 80 nM and 15 nM.
The matching figures for `CC[C@]1(NC(=O)c2ccoc2)C[C@H]2CN(CCc3c([nH]c4ccccc34)[C@@](C(=O)OC)(c3cc4c(cc3OC)N(C)[C@H]3[C@@](O)(C(=O)OC)[C@H](OC(C)=O)[C@]5(CC)C=CCN6CC[C@]43[C@@H]65)C2)C1`: 0.7 nM, 6.3 nM and 0.6 nM.
Taken in the same sequence, the figures for `CC[C@]1(NC(=O)c2ccc3c(c2)CCCC3)C[C@H]2CN(CCc3c([nH]c4ccc(F)cc34)[C@@](C(=O)OC)(c3cc4c(cc3OC)N(C)[C@H]3[C@@](O)(C(=O)OC)[C@H](OC(C)=O)[C@]5(CC)C=CCN6CC[C@]43[C@@H]65)C2)C1` were 5 nM, 19 nM and 6.2 nM.
In the case of `CC[C@]1(NC(=O)c2ccc(CC(C)C)cc2)C[C@H]2CN(CCc3c([nH]c4ccccc34)[C@@](C(=O)OC)(c3cc4c(cc3OC)N(C)[C@H]3[C@@](O)(C(=O)OC)[C@H](OC(C)=O)[C@]5(CC)C=CCN6CC[C@]43[C@@H]65)C2)C1`, the figures for the IC50 (in the assay on L1210; in assay [1]; in the assay with HCT-116) were 25 nM, 65 nM and 10 nM, respectively.
For the compound `CC[C@]1(NC(=O)c2cnc3ccccc3n2)C[C@H]2CN(CCc3c([nH]c4ccccc34)[C@@](C(=O)OC)(c3cc4c(cc3OC)N(C)[C@H]3[C@@](O)(C(=O)OC)[C@H](OC(C)=O)[C@]5(CC)C=CCN6CC[C@]43[C@@H]65)C2)C1`, the IC50 with L1210 is 6.2 nM; in assay [1] it was 60 nM; in the assay on HCT-116 it was 5.9 nM.
The matching figures for `CC[C@]1(NC(=O)C2CCN(C(=O)OC(C)(C)C)CC2)C[C@H]2CN(CCc3c([nH]c4ccccc34)[C@@](C(=O)OC)(c3cc4c(cc3OC)N(C)[C@H]3[C@@](O)(C(=O)OC)[C@H](OC(C)=O)[C@]5(CC)C=CCN6CC[C@]43[C@@H]65)C2)C1`: 50 nM, 500 nM and 45 nM.
Turning to `CC[C@]1(NC(=O)c2ccc3ccoc3c2)C[C@H]2CN(CCc3c([nH]c4ccccc34)[C@@](C(=O)OC)(c3cc4c(cc3OC)N(C)[C@H]3[C@@](O)(C(=O)OC)[C@H](OC(C)=O)[C@]5(CC)C=CCN6CC[C@]43[C@@H]65)C2)C1`, the IC50 in the assay on L1210 was determined as 3.3 nM; in assay [1], 6.5 nM; in the assay on HCT-116 it was 2.2 nM.
Take `CC[C@]1(O)C[C@H]2CN(CCc3c([nH]c4ccc(F)cc34)[C@@](C(=O)OC)(c3cc4c(cc3OC)N(C)[C@H]3[C@@](O)(C(=O)OC)[C@H](OC(C)=O)[C@]5(CC)C=CCN6CC[C@]43[C@@H]65)C2)C1`: the IC50 in the assay on L1210 is 0.6 nM; in assay [1], 30 nM; in the assay with HCT-116, 0.7 nM.
As to `CC[C@]1(NC(=O)c2ccc(NC(C)=O)cc2)C[C@H]2CN(CCc3c([nH]c4ccccc34)[C@@](C(=O)OC)(c3cc4c(cc3OC)N(C)[C@H]3[C@@](O)(C(=O)OC)[C@H](OC(C)=O)[C@]5(CC)C=CCN6CC[C@]43[C@@H]65)C2)C1`, the IC50 with L1210 came out at 1.6 nM; in assay [1], 55 nM; in the assay on HCT-116 it was 0.8 nM.
Regarding `CC[C@]1(NC(=O)c2ccc(NC)cc2)C[C@H]2CN(CCc3c([nH]c4ccccc34)[C@@](C(=O)OC)(c3cc4c(cc3OC)N(C)[C@H]3[C@@](O)(C(=O)OC)[C@H](OC(C)=O)[C@]5(CC)C=CCN6CC[C@]43[C@@H]65)C2)C1`, the results for the IC50 (with L1210; in assay [1]; in the assay with HCT-116) were 0.38 nM, 6.2 nM and 0.33 nM, respectively.
The matching figures for `CCc1cc(CC)cc(C(=O)N[C@@]2(CC)C[C@H]3CN(CCc4c([nH]c5ccccc45)[C@@](C(=O)OC)(c4cc5c(cc4OC)N(C)[C@H]4[C@@](O)(C(=O)OC)[C@H](OC(C)=O)[C@]6(CC)C=CCN7CC[C@]54[C@@H]76)C3)C2)c1`: 4.2 nM, 66 nM and 6.4 nM.
Regarding `CC[C@]1(NC(=O)c2cscn2)C[C@H]2CN(CCc3c([nH]c4ccccc34)[C@@](C(=O)OC)(c3cc4c(cc3OC)N(C)[C@H]3[C@@](O)(C(=O)OC)[C@H](OC(C)=O)[C@]5(CC)C=CCN6CC[C@]43[C@@H]65)C2)C1`, the IC50 was determined as 5.6 nM with L1210, 80 nM in assay [1] and 6.3 nM with HCT-116.
Taken in the same sequence, the figures for `CC[C@]1(NC(=O)c2ccc3c(c2)CCO3)C[C@H]2CN(CCc3c([nH]c4ccccc34)[C@@](C(=O)OC)(c3cc4c(cc3OC)N(C)[C@H]3[C@@](O)(C(=O)OC)[C@H](OC(C)=O)[C@]5(CC)C=CCN6CC[C@]43[C@@H]65)C2)C1` were 0.3 nM, 2.4 nM and 0.25 nM.
Consider `CC[C@]1(NC(=O)c2ccc3cc4ccccc4cc3c2)C[C@H]2CN(CCc3c([nH]c4ccccc34)[C@@](C(=O)OC)(c3cc4c(cc3OC)N(C)[C@H]3[C@@](O)(C(=O)OC)[C@H](OC(C)=O)[C@]5(CC)C=CCN6CC[C@]43[C@@H]65)C2)C1`, for which the IC50 in the assay with L1210 is 40 nM; in assay [1], 150 nM; with HCT-116, 60 nM.
In the case of `CC[C@]1(NC(=O)c2ccc(-c3ccccc3)cc2)C[C@H]2CN(CCc3c([nH]c4ccccc34)[C@@](C(=O)OC)(c3cc4c(cc3OC)N(C)[C@H]3[C@@](O)(C(=O)OC)[C@H](OC(C)=O)[C@]5(CC)C=CCN6CC[C@]43[C@@H]65)C2)C1`, the concentration for half-maximal inhibition (IC50) in the assay with L1210 worked out at 5.5 nM; in assay [1] it was 60 nM; in the assay with HCT-116, 5.4 nM.
For the compound `CC[C@]1(NC(=O)c2cc3ccccc3s2)C[C@H]2CN(CCc3c([nH]c4ccccc34)[C@@](C(=O)OC)(c3cc4c(cc3OC)N(C)[C@H]3[C@@](O)(C(=O)OC)[C@H](OC(C)=O)[C@]5(CC)C=CCN6CC[C@]43[C@@H]65)C2)C1`, the IC50 in the assay on L1210 stood at 3.1 nM; in assay [1], 9.2 nM; in the assay on HCT-116, 1.9 nM.
In the case of `CC[C@]1(NC(=O)c2ccc3ccccc3c2)C[C@H]2CN(CCc3c([nH]c4ccccc34)[C@@](C(=O)OC)(c3cc4c(cc3OC)N(C)[C@H]3[C@@](O)(C(=O)OC)[C@H](OC(C)=O)[C@]5(CC)C=CCN6CC[C@]43[C@@H]65)C2)C1`, the IC50 in the assay with L1210 is 1.9 nM; in assay [1], 6.4 nM; with HCT-116, 2.3 nM.
The matching figures for `CC[C@]1(NC(=O)c2ccc3c(c2)C(C)(C)CCC3(C)C)C[C@H]2CN(CCc3c([nH]c4ccccc34)[C@@](C(=O)OC)(c3cc4c(cc3OC)N(C)[C@H]3[C@@](O)(C(=O)OC)[C@H](OC(C)=O)[C@]5(CC)C=CCN6CC[C@]43[C@@H]65)C2)C1`: 7.4 nM, 50 nM and 7.8 nM.
For the compound `CC[C@]1(NC(=O)c2cccc(OC)c2)C[C@H]2CN(CCc3c([nH]c4ccccc34)[C@@](C(=O)OC)(c3cc4c(cc3OC)N(C)[C@H]3[C@@](O)(C(=O)OC)[C@H](OC(C)=O)[C@]5(CC)C=CCN6CC[C@]43[C@@H]65)C2)C1`, the half-maximal inhibitory concentration (IC50) was 0.6 nM in the assay on L1210, 8.7 nM in assay [1] and 0.8 nM in the assay on HCT-116.
Regarding `CC[C@]1(NC(=O)c2cc(C)cc(C)c2)C[C@H]2CN(CCc3c([nH]c4ccccc34)[C@@](C(=O)OC)(c3cc4c(cc3OC)N(C)[C@H]3[C@@](O)(C(=O)OC)[C@H](OC(C)=O)[C@]5(CC)C=CCN6CC[C@]43[C@@H]65)C2)C1`, the half-maximal inhibitory concentration (IC50) in the assay with L1210 amounted to 5.4 nM; in assay [1], 9.2 nM; in the assay on HCT-116, 6 nM.
For `CC[C@]1(NC(=O)c2ccc(NS(C)(=O)=O)cc2)C[C@H]2CN(CCc3c([nH]c4ccccc34)[C@@](C(=O)OC)(c3cc4c(cc3OC)N(C)[C@H]3[C@@](O)(C(=O)OC)[C@H](OC(C)=O)[C@]5(CC)C=CCN6CC[C@]43[C@@H]65)C2)C1`, the IC50 with L1210 stood at 0.4 nM; in assay [1] it was 50 nM; with HCT-116, 0.3 nM.
The matching figures for `CCCCc1ccc(C(=O)N[C@@]2(CC)C[C@H]3CN(CCc4c([nH]c5ccccc45)[C@@](C(=O)OC)(c4cc5c(cc4OC)N(C)[C@H]4[C@@](O)(C(=O)OC)[C@H](OC(C)=O)[C@]6(CC)C=CCN7CC[C@]54[C@@H]76)C3)C2)cc1`: 30 nM, 70 nM and 20 nM.

These data come from ChEMBL document CHEMBL4017512 (J Med Chem, 2017).
